From BindingDB's records for doi:10.1021/jm049073+ (University of Innsbruck, 2005)

Target: Sigma non-opioid intracellular receptor 1 (Cavia porcellus)
Assay: Affinity for sigma receptor type 1 of guinea pig using [3H]ifenprodil or (+)-[3H]pentazocine radioligand

Row | SMILES | Ki [nM]
1 | O=C(O)c1ccc(CCN2CCN(C/C=C/c3ccc(Cl)cc3)CC2)cc1 | 680
2 | CC1=C2C[C@H]3[C@@H](CC=C4C[C@@H](O)CC[C@@]43C)[C@@H]2CC[C@]12O[C@]1(C)C[C@H](C)CN[C@H]1[C@H]2C [2',3,6,7a,15'-Pentamethyl-(1'S,2'R,2'R,3R,3aS,5'S,6S,7aR,10'S,11'S)-spiro[perhydrofuro[3,2-b]pyridine-2,14'-tetracyclo[8.7.0.02,7.011,16]heptadeca-7',15'-diene]-5'-ol] | > 100000
3 | CCCCCCCCCCCCC(C#N)(CCCN(C)CCc1ccccc1)c1ccccc1 (stereo not drawn) [2-[3-(Methyl-phenethyl-amino)-propyl]-2-phenyl-tetradecanenitrile] | 1
4 | C[C@H]1CCC2[C@@H](C)[C@H]3[C@H](C[C@H]4[C@@H]5CC=C6C[C@@H](O)CC[C@]6(C)[C@H]5CC[C@]34C)N2C1 (stereo partly drawn) [4a,6a,7,10-tetramethyl-(2S,4aR,4bS,6aS,6bR,7S,10S,12aS,13aS,13bR)-2,3,4,4a,4b,5,6,6a,6b,7,7a,8,9,10,11,12a,13,13a,13b,14-icosahydro-1H-naphtho[2',1':4,5]indeno[1,2-b]indolizin-2-ol] | 74
5 | CC[C@H]1CC2C[C@H]3C4Nc5ccc(OC)cc5C4CCN(C2)C13 (stereo partly drawn) [17-ethyl-3,13-diazapentacyclo[13.3.1.02,10.04,9.013,18]nonadeca-4,6,8-trien-7-yl methyl ether] | 8550
6 | CCCCCCCOc1ccccc1NC(=O)OC(C)CN(CC)CC (stereo not drawn) [(2-Heptyloxy-phenyl)-carbamic acid 2-diethylamino-1-methyl-ethyl ester] | 230
7 | CN(c1nc2ccccc2s1)C1CCN(CCCCOc2ccccc2)C1 (stereo not drawn) [Benzothiazol-2-yl-methyl-[1-(4-phenoxy-butyl)-pyrrolidin-3-yl]-amine] | 1.3
8 | NC(=Nc1nc(-c2cc3ccccc3[nH]2)cs1)NCc1ccccc1 [N-Benzyl-N'-[4-(1H-indol-2-yl)-thiazol-2-yl]-guanidine] | 26700
